Assay results taken from publication PMC9487510, “A Novel Oral GyrB/ParE Dual Binding Inhibitor Effective against Multidrug-Resistant Neisseria gonorrhoeae and Other High-Threat Pathogens” (Antimicrobial Agents and Chemotherapy, 2022).
Like-named read-outs stand apart in the source and are kept apart here.

Test system: N. gonorrhoeae clinical isolates
Assay: MIC, agar dilution (CLSI)
Format: cell-based, Neisseria gonorrhoeae
Details: for MIC: Neisseria gonorrhoeae, read-out: MIC

CNc1cc(F)cc2c1[nH]c1nc(Oc3cnc(C)nc3)nc(N3CCC4(CC3)CO[C@@H](CO)C4)c12 [JSF-2414]
0.5 to 30 ng/mL: MIC range (96 clinical isolates)
7.8 ng/mL: MIC (multidrug-resistant strain H041) | MIC (strain CDC6 (GCREF2012 002)) | MIC (strain CDC15 (GCREF2012 011)) | MIC (strain CDC16 (GCREF2012 012)) | MIC (strain CDC18 (GCREF2012 014)) | MIC (strain CDC23 (GCREF2012 020)) | MIC (strain CDC26 (GCREF2012 023)) | MIC (strain CDC29 (GCREF2012 026)) | MIC (strain CDC30 (GCREF2012 027)) | MIC (strain CDC31 (GCREF2012 028)) | MIC (strain CDC32 (GCREF2012 029)) | MIC (strain CDC33 (GCREF2012 030)) | MIC (strain CDC45 (GCREF2012 042)) | MIC (strain CDC50 (GCREF2012 048)) | MIC (strain CDC53 (GCREF2012 051)) | MIC (strain CDC55 (GCREF2013 001))
16 ng/mL: MIC (strain CDC20 (GCREF2012 017))
2 ng/mL: MIC (strain CDC8 (GCREF2012 004)) | MIC (strain CDC36 (GCREF2012 033)) | MIC (strain CDC58 (GCREF2013 004)) | MIC (strain CDC59 (GCREF2013 044))
30 ng/mL: MIC (strain CDC22 (GCREF2012 019))
3.9 ng/mL: MIC (ATCC700825, antibiotic-susceptible strain ATCC 700825) | MIC (strain CDC1 (GCREF2012 016)) | MIC (strain CDC2 (GCREF2012 045)) | MIC (strain CDC3 (GCREF2013 013)) | MIC (strain CDC4 (GCREF2013 030)) | MIC (strain CDC5 (GCREF2012 001)) | MIC (strain CDC9 (GCREF2012 005)) | MIC (strain CDC10 (GCREF2012 006)) | MIC (strain CDC11 (GCREF2012 007)) | MIC (strain CDC12 (GCREF2012 008)) | MIC (strain CDC13 (GCREF2012 009)) | MIC (strain CDC14 (GCREF2012 010)) | MIC (strain CDC19 (GCREF2012 015)) | MIC (strain CDC21 (GCREF2012 018)) | MIC (strain CDC24 (GCREF2012 021)) | MIC (strain CDC25 (GCREF2012 022)) | MIC (strain CDC27 (GCREF2012 024)) | MIC (strain CDC28 (GCREF2012 025)) | MIC (strain CDC34 (GCREF2012 031)) | MIC (strain CDC35 (GCREF2012 032)) | MIC (strain CDC37 (GCREF2012 034)) | MIC (strain CDC38 (GCREF2012 035)) | MIC (strain CDC39 (GCREF2012 036)) | MIC (strain CDC40 (GCREF2012 037)) | MIC (strain CDC41 (GCREF2012 038)) | MIC (strain CDC42 (GCREF2012 039)) | MIC (strain CDC43 (GCREF2012 040)) | MIC (strain CDC46 (GCREF2012 043)) | MIC (strain CDC47 (GCREF2012 044)) | MIC (strain CDC48 (GCREF2012 046)) | MIC (strain CDC49 (GCREF2012 047)) | MIC (strain CDC51 (GCREF2012 049)) | MIC (strain CDC52 (GCREF2012 050)) | MIC (strain CDC54 (GCREF2012 052)) | MIC (strain CDC56 (GCREF2013 002)) | MIC (strain CDC57 (GCREF2013 003))
